Assay results reported in ChEMBL document CHEMBL5058646 (2022).

How the values were obtained:
[1] = biological target: AP2-associated protein kinase 1 (Homo sapiens) (UniProt Q2M2I8); test: AAK1 SGC Tm panel (DSF); settings: Compound concentration 20.0 uM
[2] = biological target: T1, Zinc finger and BTB domain-containing protein 24 (Homo sapiens) (UniProt O43167); settings: SUD4, Compound concentration 1.0 uM
T1 sequence (whole entry): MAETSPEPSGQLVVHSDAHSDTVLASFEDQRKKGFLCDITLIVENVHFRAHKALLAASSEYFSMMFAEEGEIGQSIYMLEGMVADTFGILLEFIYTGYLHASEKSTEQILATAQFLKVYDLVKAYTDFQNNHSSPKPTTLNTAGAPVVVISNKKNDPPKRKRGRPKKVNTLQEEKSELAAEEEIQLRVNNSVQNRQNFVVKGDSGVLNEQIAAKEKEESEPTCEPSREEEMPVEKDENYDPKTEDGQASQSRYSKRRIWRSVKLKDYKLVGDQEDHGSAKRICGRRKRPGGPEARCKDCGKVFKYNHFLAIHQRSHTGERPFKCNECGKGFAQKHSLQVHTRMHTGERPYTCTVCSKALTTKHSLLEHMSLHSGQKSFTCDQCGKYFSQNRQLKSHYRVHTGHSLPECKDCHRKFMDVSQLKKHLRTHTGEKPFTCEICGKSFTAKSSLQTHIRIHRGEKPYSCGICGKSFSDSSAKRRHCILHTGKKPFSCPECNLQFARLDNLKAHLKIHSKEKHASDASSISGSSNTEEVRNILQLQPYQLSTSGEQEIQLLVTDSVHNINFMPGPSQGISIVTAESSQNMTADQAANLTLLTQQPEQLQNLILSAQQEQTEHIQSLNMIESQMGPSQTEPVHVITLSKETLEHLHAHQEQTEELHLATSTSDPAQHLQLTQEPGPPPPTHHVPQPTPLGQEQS

[3] = biological target: Serine/threonine-protein kinase Nek2 (Homo sapiens) (UniProt P51955); test: NEK2 SGC Tm panel (DSF); settings: Compound concentration 20.0 uM
Sequence of Serine/threonine-protein kinase Nek2 (Homo sapiens) (P51955 whole entry): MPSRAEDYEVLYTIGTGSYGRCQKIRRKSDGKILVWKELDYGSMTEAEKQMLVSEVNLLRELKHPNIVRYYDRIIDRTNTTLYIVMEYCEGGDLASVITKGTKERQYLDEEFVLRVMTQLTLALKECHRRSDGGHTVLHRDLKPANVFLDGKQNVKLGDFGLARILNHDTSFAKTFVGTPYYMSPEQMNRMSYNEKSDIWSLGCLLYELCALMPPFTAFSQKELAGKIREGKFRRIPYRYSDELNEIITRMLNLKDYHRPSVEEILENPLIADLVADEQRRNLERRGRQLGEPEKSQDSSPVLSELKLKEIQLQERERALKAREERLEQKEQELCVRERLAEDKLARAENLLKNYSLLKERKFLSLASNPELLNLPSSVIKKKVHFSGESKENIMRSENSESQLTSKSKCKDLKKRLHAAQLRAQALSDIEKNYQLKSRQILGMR

[4] = biological target: Serine/threonine-protein kinase OSR1 (Homo sapiens) (UniProt O95747); test: OSR1 SGC Tm panel (DSF); settings: Compound concentration 20.0 uM
Sequence of Serine/threonine-protein kinase OSR1 (Homo sapiens) (O95747 2-527 limits assumed): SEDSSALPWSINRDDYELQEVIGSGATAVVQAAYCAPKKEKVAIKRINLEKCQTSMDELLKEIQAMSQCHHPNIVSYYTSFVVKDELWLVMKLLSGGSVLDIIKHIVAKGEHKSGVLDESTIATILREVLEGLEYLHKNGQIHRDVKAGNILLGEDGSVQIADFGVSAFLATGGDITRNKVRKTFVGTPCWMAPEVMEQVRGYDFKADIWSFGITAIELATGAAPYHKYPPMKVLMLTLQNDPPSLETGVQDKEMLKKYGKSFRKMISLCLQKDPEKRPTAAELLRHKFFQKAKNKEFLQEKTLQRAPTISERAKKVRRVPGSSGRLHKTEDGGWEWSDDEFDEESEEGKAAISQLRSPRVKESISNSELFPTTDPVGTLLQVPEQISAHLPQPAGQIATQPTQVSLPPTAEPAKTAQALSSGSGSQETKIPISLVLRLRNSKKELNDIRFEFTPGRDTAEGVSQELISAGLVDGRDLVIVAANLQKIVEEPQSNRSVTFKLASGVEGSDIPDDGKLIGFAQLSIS

[5] = biological target: Serine/threonine-protein kinase 26 (Homo sapiens) (UniProt Q9P289); test: MST4 SGC Tm panel (DSF); settings: Compound concentration 20.0 uM
Sequence of Serine/threonine-protein kinase 26 (Homo sapiens) (Q9P289 2-416 limits assumed): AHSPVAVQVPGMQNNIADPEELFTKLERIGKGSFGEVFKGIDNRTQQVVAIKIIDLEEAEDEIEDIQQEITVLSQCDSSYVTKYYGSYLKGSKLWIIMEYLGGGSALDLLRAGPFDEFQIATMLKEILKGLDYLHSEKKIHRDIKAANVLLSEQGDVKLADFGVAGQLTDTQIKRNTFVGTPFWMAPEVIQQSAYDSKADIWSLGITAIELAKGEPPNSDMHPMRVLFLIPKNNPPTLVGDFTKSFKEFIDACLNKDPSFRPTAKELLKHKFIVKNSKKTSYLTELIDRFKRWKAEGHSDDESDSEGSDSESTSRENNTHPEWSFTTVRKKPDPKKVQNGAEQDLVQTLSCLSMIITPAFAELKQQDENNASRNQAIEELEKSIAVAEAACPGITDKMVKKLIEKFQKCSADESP

[6] = biological target: Tyrosine-protein kinase Mer (Homo sapiens) (UniProt Q12866); test: MERTK SGC Tm panel (DSF); settings: Compound concentration 20.0 uM
Sequence of Tyrosine-protein kinase Mer (Homo sapiens) (Q12866 whole entry): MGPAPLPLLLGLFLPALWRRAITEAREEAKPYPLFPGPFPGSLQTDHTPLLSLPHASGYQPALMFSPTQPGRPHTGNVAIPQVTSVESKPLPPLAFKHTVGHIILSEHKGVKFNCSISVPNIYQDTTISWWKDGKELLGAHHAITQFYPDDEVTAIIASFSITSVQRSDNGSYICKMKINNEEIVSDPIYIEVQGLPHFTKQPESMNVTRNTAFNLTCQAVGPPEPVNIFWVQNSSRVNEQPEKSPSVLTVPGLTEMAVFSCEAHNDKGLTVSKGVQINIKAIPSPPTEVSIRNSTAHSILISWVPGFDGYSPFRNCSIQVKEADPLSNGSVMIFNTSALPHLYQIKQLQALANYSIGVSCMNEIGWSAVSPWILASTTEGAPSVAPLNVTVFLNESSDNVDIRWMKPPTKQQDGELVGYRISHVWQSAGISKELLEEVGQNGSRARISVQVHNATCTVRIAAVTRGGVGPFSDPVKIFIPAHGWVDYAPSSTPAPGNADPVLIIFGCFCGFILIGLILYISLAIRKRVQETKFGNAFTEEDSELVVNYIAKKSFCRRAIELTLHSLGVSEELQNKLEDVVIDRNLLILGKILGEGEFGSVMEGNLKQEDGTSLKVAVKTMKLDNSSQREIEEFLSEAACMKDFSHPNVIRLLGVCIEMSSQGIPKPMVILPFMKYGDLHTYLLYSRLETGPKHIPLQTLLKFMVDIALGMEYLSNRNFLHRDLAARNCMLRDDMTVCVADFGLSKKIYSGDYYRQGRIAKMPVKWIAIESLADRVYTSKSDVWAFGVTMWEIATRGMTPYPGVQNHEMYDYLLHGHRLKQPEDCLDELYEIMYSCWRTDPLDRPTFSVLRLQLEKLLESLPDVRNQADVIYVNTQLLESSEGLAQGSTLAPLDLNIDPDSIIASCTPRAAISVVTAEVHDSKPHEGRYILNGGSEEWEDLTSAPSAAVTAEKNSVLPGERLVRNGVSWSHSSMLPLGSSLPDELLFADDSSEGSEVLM

[7] = biological target: Ribosomal protein S6 kinase alpha-1 (Homo sapiens) (UniProt Q15418); test: RPS6KA1 SGC Tm panel (DSF); settings: Compound concentration 20.0 uM
[8] = biological target: T2, Zinc finger and BTB domain-containing protein 10 (Homo sapiens) (UniProt Q96DT7); settings: SUD4, Compound concentration 1.0 uM
T2 sequence (whole entry): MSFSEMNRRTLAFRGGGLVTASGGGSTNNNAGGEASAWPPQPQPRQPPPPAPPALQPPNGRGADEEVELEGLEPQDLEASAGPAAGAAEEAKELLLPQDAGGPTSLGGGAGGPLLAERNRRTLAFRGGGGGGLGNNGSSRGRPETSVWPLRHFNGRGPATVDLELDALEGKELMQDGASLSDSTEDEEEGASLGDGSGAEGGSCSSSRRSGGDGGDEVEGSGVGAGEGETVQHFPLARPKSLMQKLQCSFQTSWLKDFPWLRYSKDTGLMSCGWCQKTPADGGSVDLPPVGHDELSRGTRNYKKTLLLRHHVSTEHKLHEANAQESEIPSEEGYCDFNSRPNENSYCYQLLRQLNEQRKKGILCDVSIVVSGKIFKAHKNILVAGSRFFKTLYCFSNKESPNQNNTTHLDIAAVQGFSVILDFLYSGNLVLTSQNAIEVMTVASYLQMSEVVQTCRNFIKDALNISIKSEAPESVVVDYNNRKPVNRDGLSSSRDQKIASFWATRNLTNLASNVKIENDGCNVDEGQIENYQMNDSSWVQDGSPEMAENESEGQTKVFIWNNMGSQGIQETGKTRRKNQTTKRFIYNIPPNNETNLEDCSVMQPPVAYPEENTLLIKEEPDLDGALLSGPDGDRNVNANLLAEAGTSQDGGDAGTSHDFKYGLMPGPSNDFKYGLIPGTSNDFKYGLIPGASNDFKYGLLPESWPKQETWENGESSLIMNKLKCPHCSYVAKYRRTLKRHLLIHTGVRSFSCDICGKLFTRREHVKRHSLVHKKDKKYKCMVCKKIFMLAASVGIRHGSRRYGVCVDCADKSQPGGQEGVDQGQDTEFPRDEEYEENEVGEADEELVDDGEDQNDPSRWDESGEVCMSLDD

[9] = biological target: Sigma non-opioid intracellular receptor 1 (Homo sapiens) (UniProt Q99720); settings: Compound concentration 10.0 uM
Sequence of Sigma non-opioid intracellular receptor 1 (Homo sapiens) (Q99720 whole entry): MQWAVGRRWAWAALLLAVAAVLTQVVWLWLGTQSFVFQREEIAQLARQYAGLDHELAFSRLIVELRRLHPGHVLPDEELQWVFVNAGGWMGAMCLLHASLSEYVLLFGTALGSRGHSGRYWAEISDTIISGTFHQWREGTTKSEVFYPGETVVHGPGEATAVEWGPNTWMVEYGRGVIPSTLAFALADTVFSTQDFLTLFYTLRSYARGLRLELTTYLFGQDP

[10] = biological target: B-cell lymphoma 6 protein (Homo sapiens, UniProt P41182); settings: SUD4, Compound concentration 1.0 uM
[11] = biological target: D(1A) dopamine receptor (Homo sapiens) (UniProt P21728); settings: Compound concentration 10.0 uM
Sequence of D(1A) dopamine receptor (Homo sapiens) (P21728 whole entry): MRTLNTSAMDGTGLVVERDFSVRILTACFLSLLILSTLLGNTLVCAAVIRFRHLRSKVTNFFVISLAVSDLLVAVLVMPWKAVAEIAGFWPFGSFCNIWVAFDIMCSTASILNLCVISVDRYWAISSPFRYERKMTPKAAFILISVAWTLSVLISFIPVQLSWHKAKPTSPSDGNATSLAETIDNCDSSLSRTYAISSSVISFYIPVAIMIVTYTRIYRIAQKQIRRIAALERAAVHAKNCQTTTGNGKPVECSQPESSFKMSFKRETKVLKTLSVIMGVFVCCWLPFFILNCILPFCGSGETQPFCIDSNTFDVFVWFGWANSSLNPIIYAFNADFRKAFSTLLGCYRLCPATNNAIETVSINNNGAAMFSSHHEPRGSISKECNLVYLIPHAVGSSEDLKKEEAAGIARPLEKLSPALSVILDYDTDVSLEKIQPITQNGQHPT

[12] = biological target: Mitogen-activated protein kinase 14 (Homo sapiens) (UniProt Q16539); test: MAPK14 SGC Tm panel (DSF); settings: Compound concentration 20.0 uM
[13] = biological target: 5-hydroxytryptamine receptor 1B (Homo sapiens) (UniProt P28222); settings: Compound concentration 10.0 uM
[14] = biological target: D(4) dopamine receptor (Homo sapiens) (UniProt P21917); settings: Compound concentration 10.0 uM
Sequence of D(4) dopamine receptor (Homo sapiens) (P21917 whole entry): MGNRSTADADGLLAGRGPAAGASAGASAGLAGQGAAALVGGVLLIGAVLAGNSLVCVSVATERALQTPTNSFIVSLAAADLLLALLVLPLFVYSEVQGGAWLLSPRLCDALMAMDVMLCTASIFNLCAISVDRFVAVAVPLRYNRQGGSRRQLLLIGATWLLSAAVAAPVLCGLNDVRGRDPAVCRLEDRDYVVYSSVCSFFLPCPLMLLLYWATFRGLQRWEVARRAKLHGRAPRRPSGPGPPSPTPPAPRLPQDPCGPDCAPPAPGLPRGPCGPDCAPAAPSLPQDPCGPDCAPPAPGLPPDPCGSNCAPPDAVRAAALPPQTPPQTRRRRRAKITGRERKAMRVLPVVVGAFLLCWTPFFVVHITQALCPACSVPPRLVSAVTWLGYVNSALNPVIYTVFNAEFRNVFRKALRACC

[15] = biological target: Vasopressin V1a receptor (Homo sapiens) (UniProt P37288); test: GPCRScan assay: inhibition of V1A; set-up: radioligand conc. used [nm], parental cells; settings: Compound concentration 10.0 uM
[16] = biological target: Dual specificity protein kinase CLK1 (Homo sapiens) (UniProt P49759); test: CLK1 SGC Tm panel (DSF); settings: Compound concentration 20.0 uM
[17] = biological target: MAP/microtubule affinity-regulating kinase 4 (Homo sapiens) (UniProt Q96L34); test: MARK4 SGC Tm panel (DSF); settings: Compound concentration 20.0 uM
[18] = biological target: 5-hydroxytryptamine receptor 6 (Homo sapiens) (UniProt P50406); settings: Compound concentration 10.0 uM
[19] = biological target: Muscarinic acetylcholine receptor M1 (Homo sapiens) (UniProt P11229); settings: Compound concentration 10.0 uM
[20] = biological target: Glycogen synthase kinase-3 beta (Homo sapiens) (UniProt P49841); test: GSK3B SGC Tm panel (DSF); settings: Compound concentration 20.0 uM
Sequence of Glycogen synthase kinase-3 beta (Homo sapiens) (P49841 whole entry, looked up): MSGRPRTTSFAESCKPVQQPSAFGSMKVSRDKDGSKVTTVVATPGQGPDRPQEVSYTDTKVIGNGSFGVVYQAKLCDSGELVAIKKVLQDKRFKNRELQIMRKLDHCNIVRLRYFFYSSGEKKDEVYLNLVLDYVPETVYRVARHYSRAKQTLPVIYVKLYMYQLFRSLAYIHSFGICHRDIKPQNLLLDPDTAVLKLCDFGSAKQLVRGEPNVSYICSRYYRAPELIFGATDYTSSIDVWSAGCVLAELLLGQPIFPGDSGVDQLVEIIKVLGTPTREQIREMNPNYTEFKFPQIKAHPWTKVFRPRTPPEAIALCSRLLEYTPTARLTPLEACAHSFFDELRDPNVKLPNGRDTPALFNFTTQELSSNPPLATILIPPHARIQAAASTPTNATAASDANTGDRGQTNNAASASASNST

[21] = biological target: Mitogen-activated protein kinase 9 (Homo sapiens) (UniProt P45984); test: MAPK9 SGC Tm panel (DSF); settings: Compound concentration 20.0 uM
[22] = biological target: GABA-A receptor; anion channel (Rattus norvegicus) (UniProt O09028+P15431+P18506+P18508+P19969+P20236+P23574+P23576+P28471+P28473+P30191+P62813+P63079+P63138+Q91ZM7+Q9ES14); settings: Compound concentration 10.0 uM
[23] = biological target: Proto-oncogene tyrosine-protein kinase Src (Homo sapiens) (UniProt P12931); test: SRC SGC Tm panel (DSF); settings: Compound concentration 20.0 uM

Sequence of AP2-associated protein kinase 1 (Homo sapiens) (Q2M2I8 whole entry, looked up, the tested form may be a part): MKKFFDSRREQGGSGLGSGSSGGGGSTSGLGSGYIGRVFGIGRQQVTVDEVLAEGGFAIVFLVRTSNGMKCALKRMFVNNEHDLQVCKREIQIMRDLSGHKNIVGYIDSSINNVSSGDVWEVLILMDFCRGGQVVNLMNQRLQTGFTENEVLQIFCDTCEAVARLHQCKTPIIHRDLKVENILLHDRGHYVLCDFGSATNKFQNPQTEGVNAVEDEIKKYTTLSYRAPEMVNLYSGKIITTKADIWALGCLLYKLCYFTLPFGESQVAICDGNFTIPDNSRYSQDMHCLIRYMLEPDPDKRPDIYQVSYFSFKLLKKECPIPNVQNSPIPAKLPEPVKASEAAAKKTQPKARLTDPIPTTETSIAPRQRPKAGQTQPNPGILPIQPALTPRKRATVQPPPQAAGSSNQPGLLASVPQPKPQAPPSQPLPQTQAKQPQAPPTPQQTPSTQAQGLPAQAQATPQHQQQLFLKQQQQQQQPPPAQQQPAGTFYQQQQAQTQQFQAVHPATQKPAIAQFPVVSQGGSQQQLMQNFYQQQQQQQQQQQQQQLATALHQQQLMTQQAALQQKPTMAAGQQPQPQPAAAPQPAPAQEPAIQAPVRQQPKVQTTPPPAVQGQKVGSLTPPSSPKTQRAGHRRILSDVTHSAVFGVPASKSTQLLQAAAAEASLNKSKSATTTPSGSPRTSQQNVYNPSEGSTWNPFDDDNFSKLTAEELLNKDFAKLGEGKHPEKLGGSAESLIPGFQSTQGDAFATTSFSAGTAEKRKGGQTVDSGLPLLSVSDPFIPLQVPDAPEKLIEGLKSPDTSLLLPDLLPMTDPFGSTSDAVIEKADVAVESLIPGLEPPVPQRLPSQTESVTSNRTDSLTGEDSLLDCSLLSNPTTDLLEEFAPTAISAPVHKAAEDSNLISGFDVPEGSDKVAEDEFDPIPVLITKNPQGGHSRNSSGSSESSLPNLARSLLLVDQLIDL

Tm [1]: 47 °C
LogFC [2]: 0.0258
Tm [3]: 40 °C
Tm [4]: 39 °C
Tm [5]: 44 °C
Tm [6]: 47 °C
Tm [7]: 50 °C
LogFC [8]: 0.121
inhibition [9]: 47.4%
LogFC [10]: -1.13
inhibition [11]: 27.3%
Tm [12]: 45 °C
inhibition [13]: 3.38%
inhibition [14]: 15.2%
inhibition [15]: 78.6%
Tm [16]: 36 °C
Tm [17]: 36 °C
inhibition [18]: 3.94%
inhibition [19]: 3.3%
Tm [20]: 45 °C
Tm [21]: 54 °C
inhibition [22]: 7.06%
Tm [23]: 53 °C
Structure (SMILES): C[C@@H]1CN(c2ncc(Cl)c(Nc3ccc4c(c3)n(CCC(C)(C)O)c(=O)n4C)n2)C[C@H](C)C1(F)F
